For 18 compounds, IC50 results are on record in patent US9670227B2, “Thienopyrimidine derivatives, a process for their preparation and pharmaceutical compositions containing them” (LES LABORATOIRES SERVIER, priority 2013, dated 2017).

Test [1] relates to H929 multiple myeloma tumour line. The experiment in a line: In vitro cytotoxicity, Microculture Tetrazolium Assay. The test is classed as cell-based. Particulars: H929 cells, 48 hours exposure, read-out: IC50 (μM) MTT H929. Here is the method: The cytotoxicity studies were carried out on the H929 multiple myeloma tumour line.
The cells are distributed onto microplates and exposed to the test compounds for 48 hours.

Another test has as its target Mcl-1 protein (UniProtKB primary accession number: Q07820) (Homo sapiens, UniProt Q07820). Kind of test: Inhibition of Mcl-1 by fluorescence polarisation, Method 1. The test is classed as binding. Particulars: read-out: IC50 (M) Mcl-1 FP. In outline:
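Compounds were tested as 11-point serial dilutions at 5% final DMSO against 5 nM Mcl-1 with 1 nM fluorescein-labelled ligand in 10 mM HEPES, 150 mM NaCl, 0.05% Tween 20, pH 7.4. Relative binding potency was read by fluorescence polarisation.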

The mark [2] stands for this setting: Homo sapiens, NCI-H929, 48 h, MTT.
Setting [3] is: fluorescence polarisation, Method 1, or Method 2.
The mark [4] stands for this setting: fluorescence polarisation test, Method 2 values are underlined in the patent (underlining not visible here).

Where two headings read alike, the source gives them in different places.

Chain of Mcl-1 protein (Q07820 whole entry): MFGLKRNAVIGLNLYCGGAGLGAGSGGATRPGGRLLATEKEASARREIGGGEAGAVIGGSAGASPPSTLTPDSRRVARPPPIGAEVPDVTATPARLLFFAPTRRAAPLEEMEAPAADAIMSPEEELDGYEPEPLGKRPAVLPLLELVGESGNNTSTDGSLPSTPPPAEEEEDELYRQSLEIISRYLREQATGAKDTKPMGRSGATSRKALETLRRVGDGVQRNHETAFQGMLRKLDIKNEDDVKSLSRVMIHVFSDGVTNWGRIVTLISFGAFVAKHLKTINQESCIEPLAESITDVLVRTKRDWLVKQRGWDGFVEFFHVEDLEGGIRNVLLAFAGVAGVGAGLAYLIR

As to `COc1ccccc1-c1nccc(COc2ccccc2CC(Oc2ncnc3sc(-c4ccc(F)cc4)c(-c4ccc(OCCN5CCNCC5)c(Cl)c4C)c23)C(=O)O)n1` [Example 744, (2R)-2-{[(5Sa)-5-{3-chloro-2-methyl-4-[2-(piperazin-1-yl)ethoxy]phenyl}-6-(4-fluorophenyl)thieno[2,3-d]pyrimidin-4-yl]oxy}-3-(2-{[2-(2-methoxyphenyl)pyrimidin-4-yl]methoxy}phenyl)propanoic acid], the figures for the IC50 (in test [1] (setting [2]); on Mcl-1 protein (setting [3])) were 0.042 µM and 9.48e-10 M, respectively.
For `COc1ccccc1CC(Oc1ncnc2sc(-c3ccc(F)c(OCC(F)(F)F)c3)c(-c3ccc(OCCN4CCN(C)CC4)c(Cl)c3C)c12)C(=O)O` [Example 535, (2R)-2-[(5Sa)-5-{3-chloro-2-methyl-4-[2-(4-methylpiperazin-1-yl)ethoxy]phenyl}-6-[4-fluoro-3-(2,2,2-trifluoroethoxy)phenyl]thieno[2,3-d]pyrimidin-4-yl)oxy]-3-(2-methoxyphenyl)propanoic acid] the same measures were 1.84 µM and 1.3e-07 M.
For the compound `Cc1c(-c2c(-c3ccc(F)cc3)sc3ncnc(OC(Cc4ccccc4OCc4ccnc(-c5ccncc5)n4)C(=O)O)c23)ccc(OCCN(C)C)c1Cl` [Example 128, (2R)-2-{[(5Sa)-5-{3-chloro-4-[2-(dimethylamino)ethoxy]-2-methylphenyl}-6-(4-fluorophenyl)thieno[2,3-d]pyrimidin-4-yl]oxy}-3-(2-{[2-(pyridin-4-yl)pyrimidin-4-yl]methoxy}phenyl)propanoic acid], the IC50 turned out to be 0.018 µM in test [1] (setting [2]) and 4e-09 M at Mcl-1 protein (setting [4]).
On to `Cc1c(-c2c(-c3ccc(Cl)o3)sc3ncnc(OC(Cc4ccccc4OCC4CCCO4)C(=O)O)c23)ccc(OCCN2CCN(C)CC2)c1Cl` [Example 364, (2R)-2-{[6-(5-chlorofuran-2-yl)-(5Sa)-5-{3-chloro-2-methyl-4-[2-(4-methylpiperazin-1-yl)ethoxy]phenyl}thieno[2,3-d]pyrimidin-4-yl]oxy}-3-{2-[(2R)-tetrahydrofuran-2-ylmethoxy]phenyl}propanoic acid], for which the concentration for half-maximal inhibition (IC50) stood at 0.052 µM in test [1] (setting [2]) and 5.1e-09 M at Mcl-1 protein (setting [4]).
For `CCn1nccc1COc1ccccc1CC(Oc1ncnc2sc(-c3ccc(F)cc3)c(-c3cnc(OCCN4CCN(C)CC4)c(Cl)c3C)c12)C(=O)O` [Example 652, (2R)-2-{[(5Ra)-5-{5-chloro-4-methyl-6-[2-(4-methylpiperazin-1-yl)ethoxy]pyridin-3-yl}-6-(4-fluorophenyl)thieno[2,3-d]pyrimidin-4-yl]oxy}-3-{2-[(1-ethyl-1H-pyrazol-5-yl)methoxy]phenyl}propanoic acid], the IC50 in test [1] (setting [2]) came out at 0.059 µM; on Mcl-1 protein (setting [3]), 4.7e-09 M.
`Cc1c(-c2c(-c3ccc(F)cc3)sc3ncnc(OC(Cc4ccccc4OCc4ccnn4C4CCCC4)C(=O)O)c23)ccc(OCCN2CCN(C)CC2)c1Cl` [Example 72, (2R)-2-{[(5Sa)-5-{3-chloro-2-methyl-4-[2-(4-methylpiperazin-1-yl)ethoxy]phenyl}-6-(4-fluorophenyl)thieno[2,3-d]pyrimidin-4-yl]oxy}-3-{2-[(1-cyclopentyl-1H-pyrazol-5-yl)methoxy]phenyl}propanoic acid]: the half-inhibitory concentration (IC50) in test [1] (setting [2]) was determined as 0.04 µM; on Mcl-1 protein (setting [4]), 9.3e-09 M.
Consider `Cc1c(-c2c(-c3ccc(Cl)s3)sc3ncnc(OC(Cc4ccccc4)C(=O)O)c23)ccc(OCCN2CCN(C)CC2)c1Cl` [Example 501, (2R)-2-{[(5Sa)-5-{3-chloro-2-methyl-4-[2-(4-methylpiperazin-1-yl)ethoxy]phenyl}-6-(5-chlorothiophen-2-yl)thieno[2,3-d]pyrimidin-4-yl]oxy}-3-phenylpropanoic acid], for which the 50% inhibitory concentration (IC50) in test [1] (setting [2]) stood at 2.84 µM; on Mcl-1 protein (setting [3]), 2.8e-07 M.
Regarding `COc1ccccc1CC(Oc1ncnc2sc(-c3cccc(OCCN4CCOCC4)c3)c(-c3ccc(OCCN4CCN(C)CC4)c(Cl)c3C)c12)C(=O)O` [Example 588, (2R)-2-[((5Sa)-5-{3-chloro-2-methyl-4-[2-(4-methylpiperazin-1-yl)ethoxy]phenyl}-6-{3-[2-(morpholin-4-yl)ethoxy]phenyl}thieno[2,3-d]pyrimidin-4-yl)oxy]-3-(2-methoxyphenyl)propanoic acid], the 50% inhibitory concentration (IC50) in test [1] (setting [2]) amounted to 0.256 µM; at Mcl-1 protein (setting [3]), 8e-09 M.
For the compound `Cc1c(-c2c(-c3ccc(F)cc3)sc3ncnc(OC(Cc4ccccc4OCc4ccnc(OCC(F)(F)F)n4)C(=O)O)c23)ccc(OCCN(C)C)c1Cl` [Example 131, (2R)-2-{[(5Sa)-5-{3-chloro-4-[2-(dimethylamino)ethoxy]-2-methylphenyl}-6-(4-fluorophenyl)thieno[2,3-d]pyrimidin-4-yl]oxy}-3-(2-{[2-(2,2,2-trifluoroethoxy)pyrimidin-4-yl]methoxy}phenyl)propanoic acid], the 50% inhibitory concentration (IC50) in test [1] (setting [2]) amounted to 0.039 µM; on Mcl-1 protein (setting [4]) it was 7.9e-09 M.
On to `CC#Cc1sc2ncnc(OC(Cc3ccccc3OCc3ccnc(OC)n3)C(=O)O)c2c1-c1ccc(OCCN2CCN(C)CC2)c(Cl)c1C` [Example 486, (2R)-2-{[(5Sa)-5-{3-chloro-2-methyl-4-[2-(4-methylpiperazin-1-yl)ethoxy]phenyl}-6-(prop-1-yn-1-yl)thieno[2,3-d]pyrimidin-4-yl]oxy}-3-{2-[(2-methoxypyrimidin-4-yl)methoxy]phenyl}propanoic acid], for which the IC50 in test [1] (setting [2]) amounted to 0.146 µM; on Mcl-1 protein (setting [3]), 1.9e-09 M.
In the case of `Cc1c(-c2c(-c3ccc(F)cc3)sc3ncnc(OC(Cc4ccccc4OCc4ccnc(N5CCOCC5)n4)C(=O)O)c23)ccc(OCCN(C)C)c1Cl` [Example 129, (2R)-2-{[(5Sa)-5-{3-chloro-4-[2-(dimethylamino)ethoxy]-2-methylphenyl}-6-(4-fluorophenyl)thieno[2,3-d]pyrimidin-4-yl]oxy}-3-(2-{[2-(morpholin-4-yl)pyrimidin-4-yl]methoxy}phenyl)propanoic acid], the values for the concentration for half-maximal inhibition (IC50) (in test [1] (setting [2]); on Mcl-1 protein (setting [4])) were 0.069 µM and 2.2e-09 M, respectively.
`COCC#Cc1ccccc1CC(Oc1ncnc2sc(-c3ccc(F)cc3)c(-c3ccc(OCCN4CCN(C)CC4)c(Cl)c3C)c12)C(=O)O` [Example 656, (2R)-2-{[(5Sa)-5-{3-chloro-2-methyl-4-[2-(4-methylpiperazin-1-yl)ethoxy]phenyl}-6-(4-fluorophenyl)thieno[2,3-d]pyrimidin-4-yl]oxy}-3-[2-(3-methoxyprop-1-yn-1-yl)phenyl]propanoic acid]: the IC50 in test [1] (setting [2]) was 0.523 µM; at Mcl-1 protein (setting [3]), 6.1e-08 M.
On to `Cc1c(-c2c(-c3ccc(F)cc3)sc3ncnc(OC(Cc4ccccc4OCc4ccnc(C5CC5)n4)C(=O)O)c23)ccc(OCCN2CCN(C)CC2)c1Cl` [Example 26, (2R)-2-{[(5Sa)-5-{3-chloro-2-methyl-4-[2-(4-methylpiperazin-1-yl)ethoxy]phenyl}-6-(4-fluorophenyl)thieno[2,3-d]pyrimidin-4-yl]oxy}-3-{2-[(2-cyclopropylpyrimidin-4-yl)methoxy]phenyl}propanoic acid], for which the results for the concentration for half-maximal inhibition (IC50) (in test [1] (setting [2]); at Mcl-1 protein (setting [4])) were 0.028 µM and 1.1e-08 M, respectively.
As to `CCCCn1nccc1COc1ccccc1CC(Oc1ncnc2sc(-c3ccc(-c4ccc(Cl)nc4)nc3)c(-c3ccc(OCCN4CCN(C)CC4)c(Cl)c3C)c12)C(=O)O` [Example 605, (2R)-3-{2-[(1-butyl-1H-pyrazol-5-yl)methoxy]phenyl}-2-{[6-(6′-chloro-2,3′-bipyridin-5-yl)-(5Sa)-5-{3-chloro-2-methyl-4-[2-(4-methylpiperazin-1-yl)ethoxy]phenyl}thieno[2,3-d]pyrimidin-4-yl]oxy}propanoic acid], the IC50 in test [1] (setting [2]) amounted to 0.254 µM; at Mcl-1 protein (setting [3]) it was 8.2e-09 M.
In the case of `COc1ccccc1CC(Oc1ncnc2sc(-c3ccco3)c(-c3ccc(OCC4CCCN4C)c(Cl)c3C)c12)C(=O)O` [Example 299, (2R)-2-{[(5Sa)-5-(3-chloro-2-methyl-4-{[(2R)-1-methylpyrrolidin-2-yl]methoxy}phenyl)-6-(furan-2-yl)thieno[2,3-d]pyrimidin-4-yl]oxy}-3-(2-methoxyphenyl)propanoic acid], the 50% inhibitory concentration (IC50) was 1.03 µM in test [1] (MTT) and 1.6e-08 M at Mcl-1 protein (setting [4]).
`COc1nccc(COc2ccccc2CC(Oc2ncnc3sc(-c4ccc(F)c(OC)c4)c(-c4ccc(OCCN5CCN(C)CC5)c(Cl)c4C)c23)C(=O)O)n1` [Example 383, (2R)-2-{[(5Sa)-5-{3-chloro-2-methyl-4-[2-(4-methylpiperazin-1-yl)ethoxy]phenyl}-6-(4-fluoro-3-methoxyphenyl)thieno[2,3-d]pyrimidin-4-yl]oxy}-3-{2-[(2-methoxypyrimidin-4-yl)methoxy]phenyl}propanoic acid]: the IC50 was determined as 0.03 µM in test [1] (setting [2]) and 5.6e-09 M on Mcl-1 protein (setting [4]).
As to `COc1ccccc1-c1nccc(COc2ccccc2CC(Oc2ncnc3sc(-c4cccc(F)c4)c(-c4ccc(OCCN5CCN(C)CC5)c(Cl)c4C)c23)C(=O)O)n1` [Example 836, (2R)-2-{[(5Sa)-5-{3-chloro-2-methyl-4-[2-(4-methylpiperazin-1-yl)ethoxy]phenyl}-6-(3-fluorophenyl)thieno[2,3-d]pyrimidin-4-yl]oxy}-3-(2-{[2-(2-methoxyphenyl)pyrimidin-4-yl]methoxy}phenyl)propanoic acid], the concentration for half-maximal inhibition (IC50) in test [1] (Homo sapiens, NCI-H929, 48 h, cell viability) is 0.002 µM; at Mcl-1 protein (fluorescence polarisation test, Method 1, or Method 2 where the value is underlined (underlining not visible)), 2.8e-09 M.
Consider `COc1ccccc1CC(Oc1ncnc2sc(-c3ccco3)c(-c3ccc(OCCC4CCN(C)CC4)c(Cl)c3C)c12)C(=O)O` [Example 317, (2R)-2-{[(5Sa)-5-{3-chloro-2-methyl-4-[2-(1-methylpiperidin-4-yl)ethoxy]phenyl}-6-(furan-2-yl)thieno[2,3-d]pyrimidin-4-yl]oxy}-3-(2-methoxyphenyl)propanoic acid], for which the concentration for half-maximal inhibition (IC50) was 0.852 µM in test [1] (setting [2]) and 1.8e-08 M at Mcl-1 protein (setting [4]).
